In patent US20220040236A1, “COMPOSITIONS AND METHODS OF TREATMENT OF VISION LOSS THROUGH GENERATION OF ROD PHOTORECEPTORS FROM MÜLLER GLIAL CELLS” (ICAHN SCHOOL OF MEDICINE AT MOUNT SINAI, priority 2018, published 2022):

Columns and labels:
Format in all cases: in vivo, mouse
[1] = tested on: Müller glial cells (MGs); assay: NMDA-induced MG proliferation, EdU incorporation in retinal flatmount preparations
Protocol: (§1) Adult mice at 4 weeks of age were anesthetized with an intraperitoneal injection of ketamine (50 mg/kg mouse body weight) and xylazine (5 mg/kg mouse body weight). Intravitreal injection was performed using a microsyringe equipped with a 33 gauge needle. The tip of the needle was passed through the sclera, at the equator and next to the dorsal limbus of the eye, into the vitreous cavity. Injection volume is 1 μl per eye for AAVs or other chemicals including NMDA (Acros Organics, 100 mM) and XAV939 (Sigma, 10 μM).
EdU solution (1 ul) was intravitreally injected into the vitreous chamber at the concentration of 1 mg/ml. Analysis of EdU incorporation was performed using Click-iT EdU Kit (Invitrogen, Grand Island, N.Y.). In brief, retinal cryostat sections or flatmount preparations were washed in PBS first for 10 min and then washed twice in PBS containing 3% BSA, followed by permeabilization in PBS containing 0.5% Triton X-100 for 20 min. After washing twice in PBS containing 3% BSA, EdU detection components were resuspended according to manufacturer's instructions and applied directly to retinal samples. The solution for each EdU reaction has a total volume of 250 μl composed of 215 μl 1× Click-iT reaction buffer, 10 μl CuSO4, 0.6 μl Alexa Fluor azide, and 25 μl 1× Reaction buffer additive. After incubation in the reaction solution for 30 minutes at room temperature, samples were washed with PBS and mounted with Fluoromount-G for detection.
To examine MG proliferation induced by neurotoxic injury in the adult mammalian retina, 200 nmol was injected NMDA into the vitreous chamber of the mouse retina at 4 weeks of age. The same dosage of NMDA was previously used to introduce retinal injury leading to MG proliferation in adult rat and mouse retina (Karl et al., Proc Natl Acad Sci USA, 2008, 105:19508-19513; Ooto et al., Proc Natl Acad Sci USA, 2004, 101:13654-13659). Anti-HuC/D immunohistochemistry was used to assay the time course of NMDA-induced cell death in the ganglion cell layer (GCL). […] To assay cell proliferation, 1 μl of 1 mg/ml of EdU, a nucleoside analog of thymidine that is incorporated into DNA during active DNA synthesis, was injected into the vitreous chamber 5 hours before tissue collection at 24, 36, 48, 60, 72, and 96 hours post-NMDA injection. NMDA-induced cell proliferation was quantified by scoring the number of EdU^+ cells/mm^2 in retinal flatmount preparations. A small number (4.7±0.8) of EdU^−1 cells appeared 36 hours post-NMDA injection. The number of EdU^−1 cells continued to increase, reaching 223.3±8.3 and 264.5±8.4 at 48 and 60 hours, respectively, before it was reduced to 5.8±1.1 at 72 hours post-NMDA injection (FIG. 2A). The EdU^−1 cells were also immunoreactive for CyclinD3 and p27^kip1 (FIG. 2B), MG-specific nuclear antigens (Dyer and Cepko, Nat Neurosci. 2000, 3:873-880).
To examine the ability of inhibition of Wnt signaling to suppress NMDA-induced MG proliferation, NMDA was co-injected with XAV939, a selective Wnt signaling antagonist (Huang et al., Nature, 2009, 461:614-620), and the number of EdU^+ cells per mm^2 in retinal flatmount preparations was quantified 60 hours post-injection, when the maximum number of EdU^+ cells were detected (FIG. 2A). […] To assay whether XAV939 treatment affects NMDA-induced retinal damage, the number of HuC/D+ cells was quantified in the GCL at 60 hours post-injection.
Lin28 is a direct transcriptional target of Wnt/β-catenin signaling. […]

[2] = tested on: retinal ganglion cells and amacrine cells; assay: NMDA-induced cell death, anti-HuC/D immunohistochemistry in the ganglion cell layer; conditions: 36 hours post-NMDA injection, 200 nmol NMDA intravitreal
Protocol: as §1
Retinas were fixed with 4% paraformaldehyde in PBS for 30 minutes at room temperature, followed by overnight incubation at 4° C. in PBS containing 30% sucrose. […]
To examine MG proliferation induced by neurotoxic injury in the adult mammalian retina, 200 nmol was injected NMDA into the vitreous chamber of the mouse retina at 4 weeks of age. […] NMDA-induced cell proliferation was quantified by scoring the number of EdU^+ cells/mm^2 in retinal flatmount preparations. […]
To examine the ability of inhibition of Wnt signaling to suppress NMDA-induced MG proliferation, NMDA was co-injected with XAV939, a selective Wnt signaling antagonist (Huang et al., Nature, 2009, 461:614-620), and the number of EdU^+ cells per mm^2 in retinal flatmount preparations was quantified 60 hours post-injection, when the maximum number of EdU^+ cells were detected (FIG. 2A). […]

[3] = tested on: Wnt signaling pathway; assay: quantitative PCR of Wnt genes, Wnt antagonists and Wnt target genes after NMDA injury
Protocol: Total RNA was extracted from retinas using TRIzol (Invitrogen, Grand Island, N.Y.) according to the manufacture's protocol. Reverse transcription (RT) was then performed at 42° C. for 2 hours in a volume of 20 μl containing 0.5 μg of oligo(dT), 1×RT buffer, 0.5 mM each deoxyribonucleotide triphosphate, 0.1 mM dithiothreitol, and 200 U of Superscript II reverse transcriptase (Invitrogen, Grand Island, N.Y.). Real-Time quantitative PCR (qPCR) was performed in triplicate with SsoFast™ EvaGreen supermix (Bio-Rad, Hercules, Calif.) using an iCycler real-time PCR detection system (Bio-Rad, Hercules, Calif.). The amplification protocol was 30 seconds at 94° C., 30 seconds at 56° C., and 30 seconds at 72° C., with a signal detection period of 7 seconds at 80° C. A melt curve analysis was performed at the end of the reaction to check the reaction specificity. Results were obtained after normalization to the expression level of the housekeeping gene, B-actin. All experiments were performed at least twice to ensure repeatable results.
To examine whether Wnt signaling is activated by NMDA-induced neurotoxic injury, quantitative PCR was performed to assay the RNA levels of Wnt genes at 3, 6, 12, 18, 24, 36, and 48 hours post-NMDA injection, relative to the PBS injected retina as a control. […] The upregulation of Wnt genes and a concomitant downregulation of WIF-1 and Dkk1 would predict activation of the canonical Wnt/β-catenin signaling pathway. Indeed, 24 hours post-NMDA injection, a 3.4-fold upregulation of CyclinD1 (Ccnd1, FIG. 2D), a target gene of the Wnt signaling pathway (Shtutman et al., Proc Natl Acad Sci USA, 1999, 96:5522-5527; Tetsu and McCormick, Nature, 1999, 398:422-426) and key regulator of the cell cycle progression from the G1 to S phase (Resnitzky et al., Mol Cell Biol. 1994, 14:1669-1679), was detected.

Row | SMILES | number of EdU+ cells/mm^2 ([1]; 36 hours post-NMDA injection) [cells/mm^2] | number of EdU+ cells/mm^2 ([1]; 48 hours post-NMDA injection) [cells/mm^2] | number of EdU+ cells/mm^2 ([1]; 60 hours post-NMDA injection) [cells/mm^2] | number of EdU+ cells/mm^2 ([1]; 72 hours post-NMDA injection) [cells/mm^2] | HuC/D+ cells remaining [2] [%] | RNA levels for Wnt genes (Wnt2b, Wnt8a, Wnt8b, Wnt9a, Wnt10a), upregulation ([3]; 6-24 hours post-NMDA injection, relative to PBS injected retina) | RNA levels for WIF-1 ([3]; 12 hours post-NMDA injection) | RNA levels for Dkk1 ([3]; 24 hours post-NMDA injection) | upregulation of CyclinD1 (Ccnd1) ([3]; 24 hours post-NMDA injection) [fold] | RNA levels of Lef1 and Axin2 ([3]; post-NMDA injection) | number of EdU+ cells per mm^2 versus NMDA injection alone ([1]; XAV939 co-injected with NMDA, 60 hours post-injection)
1 | CN[C@H](CC(=O)O)C(=O)O [NMDA] | 4.7±0.8 | 223.3±8.3 | 264.5±8.4 | 5.8±1.1 | ~45 | at least 3 fold | 1.6±0.2 % of the control | 13.2±0.6 % of the control | 3.4 | significant upregulation | 
2 | Oc1nc(-c2ccc(C(F)(F)F)cc2)nc2c1CSCC2 [XAV939] |  |  |  |  |  |  |  |  |  |  | significantly reduced
